From US9918990B2, “Substituted pyrrolo[2,3-c]pyridines and pyrazolo[3,4-c]pyridines as BET protein inhibitors” (Incyte Corporation, priority 2013, dated 2018)
Counter-ions that a name gives are not always drawn.

Key:
BRD4-BD2 = BRD4-BD2 (Homo sapiens (Human), UniProt O60885); test: BRD4 AlphaScreen assay, BRD4-BD2; assay type: binding; conditions: H4Ac4 peptide, 75 min, room temperature, read-out: BRD4 BD-2 enzyme IC50
Procedure: (§1) BRD4-BD1 and BRD4-BD2 assays were conducted in white 384-well polystyrene plate in a final volume of 20 μL for BD1 and 40 μL for BD2. Inhibitors were first serially diluted in DMSO and added to the plate wells before the addition of other reaction components. […] After plate sealing, the plate was incubated in the dark at room temperature for 75 min. before reading on a PHERAstar FS plate reader (BMG Labtech). IC50 determination was performed by fitting the curve of percent control activity versus the log of the inhibitor concentration using the GraphPad Prism 5.0 software.

KMS.12.BM cells = test: KMS.12.BM cell viability assay (Cell Titer-GLO, ATP quantitation); assay type: cell-based; conditions: Homo sapiens, 72 h, 3 days, concentration required for 50% cell death, read-out: KMS cellular IC50
Procedure: KMS.12.BM cell line (human myeloma) was purchased from JCRB (Osaka, Japan) and maintained in RPMI with 10% FBS culture medium. To measure the cytotoxic activity of the compounds through ATP quantitation, the KMS.12.BM cells are plated in the RPMI culture medium at 5000 cells/well/per 100 μL into a 96-well polystyrene clear black tissue culture plate (Greiner-bio-one through VWR, NJ), in the presence or absence of a concentration range of test compounds. After 3 days, […] Cell Titer-GLO Luminescent (Promega, Madison, Wis.) cell culture agent is added to each well for 10 minutes at room temperature to stabilize the luminescent signal. This determines the number of viable cells in culture based on quantitation of the ATP present, which signals the presence of metabolically active cells. Luminescence is measured with the Top Count 384 (Packard Bioscience through Perkin Elmer, Boston, Mass.). Compound inhibition is determined relative to cells cultured with no drug and the IC50 is reported as the compound concentration required for 50% cell death. IC50 data for the Examples is presented in Table 9 as determined by Assay B1.

BRD4-BD1 = BRD4-BD1 (Homo sapiens (Human), UniProt O60885); test: BRD4 AlphaScreen assay, BRD4-BD1; assay type: binding; conditions: H4Ac4 peptide, 75 min, room temperature, read-out: BRD4 BD-1 enzyme IC50
Procedure: as §1

SMILES | IC50 (BRD4-BD2) | IC50 (BRD4-BD1) | IC50 (KMS.12.BM cells)
CN(C)C(=O)Cn1cnc2ccc(-c3cn(C)c(=O)c4[nH]ccc34)c(Oc3ccc(F)cc3F)c21 [Example 33, 2-[7-(2,4-Difluorophenoxy)-6-(6-methyl-7-oxo-6,7-dihydro-1H-pyrrolo[2,3-c]pyridin-4-yl)-1H-benzimidazol-1-yl]-N,N-dimethylacetamide] | < 0.1 µM | < 0.1 µM | ≤ 1 µM
CNC(=O)Cn1cnc2ccc(-c3cn(C)c(=O)c4[nH]ccc34)c(Oc3ccc(F)cc3F)c21 [Example 35, 2-[7-(2,4-Difluorophenoxy)-6-(6-methyl-7-oxo-6,7-dihydro-1H-pyrrolo[2,3-c]pyridin-4-yl)-1H-benzimidazol-1-yl]-N-methylacetamide] | < 0.1 µM | < 0.1 µM | ≤ 1 µM
CCOc1c(-c2cn(C)c(=O)c3[nH]ccc23)c(C)nc2cc(C)nn12 [Example 73, 4-(7-Ethoxy-2,5-dimethylpyrazolo[1,5-a]pyrimidin-6-yl)-6-methyl-1,6-dihydro-7H-pyrrolo[2,3-c]pyridin-7-one] | 0.1 to 1 µM | 1 to 10 µM | 
Cn1cc(-c2cc(CNCc3ccccc3)c3[nH]c(=O)[nH]c3c2Oc2ccc(F)cc2F)c2cc[nH]c2c1=O [Example 80, 7-[(Benzylamino)methyl]-4-(2,4-difluorophenoxy)-5-(6-methyl-7-oxo-6,7-dihydro-1H-pyrrolo[2,3-c]pyridin-4-yl)-1,3-dihydro-2H-benzimidazol-2-one] | < 0.1 µM | < 0.1 µM | ≤ 1 µM
Cn1cc(-c2cc(CNCC3CC3)c3[nH]c(=O)[nH]c3c2Oc2ccc(F)cc2F)c2cc[nH]c2c1=O [Example 81, 7-{[(Cyclopropylmethyl)amino]methyl}-4-(2,4-difluorophenoxy)-5-(6-methyl-7-oxo-6,7-dihydro-1H-pyrrolo[2,3-c]pyridin-4-yl)-1,3-dihydro-2H-benzimidazol-2-one] | < 0.1 µM | 0.1 to 1 µM | ≤ 1 µM
Cn1cnc2c(Oc3ccc(F)cc3F)c(-c3c[nH]c(=O)c4[nH]ccc34)ccc21 [Example 82, 4-[4-(2,4-Difluorophenoxy)-1-methyl-1H-benzimidazol-5-yl]-1,6-dihydro-7H-pyrrolo[2,3-c]pyridin-7-one] | 0.1 to 1 µM | 0.1 to 1 µM | 
Cn1cnc2c(Oc3ccc(F)cc3F)c(-c3cn(Cc4ccccc4)c(=O)c4[nH]ccc34)ccc21 [Example 84, 6-Benzyl-4-[4-(2,4-difluorophenoxy)-1-methyl-1H-benzimidazol-5-yl]-1,6-dihydro-7H-pyrrolo[2,3-c]pyridin-7-one trifluoroacetate] | 0.1 to 1 µM | 1 to 10 µM | 
Cn1cc(-c2ccc3c(c2Oc2ccccc2)N(Cc2ccccc2)C(=O)CO3)c2cc[nH]c2c1=O [Example 101, 4-Benzyl-6-(6-methyl-7-oxo-6,7-dihydro-1H-pyrrolo[2,3-c]pyridin-4-yl)-5-phenoxy-2H-1,4-benzoxazin-3(4H)-one] | 0.1 to 1 µM | 0.1 to 1 µM | 
Cn1cc(-c2ccc3c(c2Oc2ccccc2)N(CCN2CCOCC2)C(=O)CO3)c2cc[nH]c2c1=O [Example 102, 6-(6-Methyl-7-oxo-6,7-dihydro-1H-pyrrolo[2,3-c]pyridin-4-yl)-4-(2-morpholin-4-ylethyl)-5-phenoxy-2H-1,4-benzoxazin-3(4H)-one trifluoroacetate] | < 0.1 µM | 0.1 to 1 µM | 
Cn1cc(-c2ccc3c(c2Oc2ccccc2)NC(c2ccccc2)CO3)c2cc[nH]c2c1=O (centres unmarked) [Example 110, 6-Methyl-4-(5-phenoxy-3-phenyl-3,4-dihydro-2H-1,4-benzoxazin-6-yl)-1,6-dihydro-7H-pyrrolo[2,3-c]pyridin-7-one] | < 0.1 µM | 0.1 to 1 µM | 

Second part, led by results:

IC50 (BRD4-BD2) | IC50 (BRD4-BD1) | SMILES | IC50 (KMS.12.BM cells)
< 0.1 µM | < 0.1 µM | Cn1cc(-c2ccc3[nH]c(=O)[nH]c3c2OC2CCC(F)(F)CC2)c2cc[nH]c2c1=O [Example 23, 4-[(4,4-Difluorocyclohexyl)oxy]-5-(6-methyl-7-oxo-6,7-dihydro-1H-pyrrolo[2,3-c]pyridin-4-yl)-1,3-dihydro-2H-benzimidazol-2-one] | ≤ 1 µM
< 0.1 µM | < 0.1 µM | COc1c(-c2cn(C)c(=O)c3[nH]ccc23)ccc2c1n(Cc1ccccc1)c(=O)n2C [Example 44, 3-Benzyl-4-methoxy-1-methyl-5-(6-methyl-7-oxo-6,7-dihydro-1H-pyrrolo[2,3-c]pyridin-4-yl)-1,3-dihydro-2H-benzimidazol-2-one] | ≤ 1 µM
< 0.1 µM | 0.1 to 1 µM | COc1c(-c2cn(C)c(=O)c3[nH]ccc23)ccc2c1n(CCc1ccccc1)c(=O)n2C [Example 49, 4-Methoxy-1-methyl-5-(6-methyl-7-oxo-6,7-dihydro-1H-pyrrolo[2,3-c]pyridin-4-yl)-3-(2-phenylethyl)-1,3-dihydro-2H-benzimidazol-2-one] | ≤ 1 µM
< 0.1 µM | 0.1 to 1 µM | COc1c(-c2cn(C)c(=O)c3[nH]ccc23)ccc2c1n(CCN1CCOCC1)c(=O)n2C [Example 50, 4-Methoxy-1-methyl-5-(6-methyl-7-oxo-6,7-dihydro-1H-pyrrolo[2,3-c]pyridin-4-yl)-3-(2-morpholin-4-ylethyl)-1,3-dihydro-2H-benzimidazol-2-one] | 
< 0.1 µM | < 0.1 µM | Cn1cc(-c2ccc3c(c2OCC2CCC2)n(CCc2ccccc2)c(=O)n3C)c2cc[nH]c2c1=O [Example 63, 4-(Cyclobutylmethoxy)-1-methyl-5-(6-methyl-7-oxo-6,7-dihydro-1H-pyrrolo[2,3-c]pyridin-4-yl)-3-(2-phenylethyl)-1,3-dihydro-2H-benzimidazol-2-one] | ≤ 1 µM
< 0.1 µM | < 0.1 µM | Cn1cc(-c2ccc3c(c2OCC2CCC2)n(CCC2CCNCC2)c(=O)n3C)c2cc[nH]c2c1=O [Example 65, 4-(Cyclobutylmethoxy)-1-methyl-5-(6-methyl-7-oxo-6,7-dihydro-1H-pyrrolo[2,3-c]pyridin-4-yl)-3-(2-piperidin-4-ylethyl)-1,3-dihydro-2H-benzimidazol-2-one] | 1 to 10 µM
< 0.1 µM | < 0.1 µM | Cn1cc(-c2ccc3c(c2OCC2CCC2)n(CCN2CCN(S(C)(=O)=O)CC2)c(=O)n3C)c2cc[nH]c2c1=O [Example 67, 4-(Cyclobutylmethoxy)-1-methyl-5-(6-methyl-7-oxo-6,7-dihydro-1H-pyrrolo[2,3-c]pyridin-4-yl)-3-{2-[4-(methylsulfonyl)piperazin-1-yl]ethyl}-1,3-dihydro-2H-benzimidazol-2-one] | ≤ 1 µM
1 to 10 µM | 1 to 10 µM | C[C@@H]1CN(CCn2c(NCc3ccccc3)nc3c(Oc4ccccc4)c(-c4cn(C)c(=O)c5[nH]ccc45)ccc32)C[C@H](C)O1 [Example 71, 4-(2-(Benzylamino)-1-{2-[(2R,6S)-2,6-dimethylmorpholin-4-yl]ethyl}-4-phenoxy-1H-benzimidazol-5-yl)-6-methyl-1,6-dihydro-7H-pyrrolo[2,3-c]pyridin-7-one trifluoroacetate] | 
< 0.1 µM | 0.1 to 1 µM | C[C@@H]1CN(CCn2c(NCC3CC3)nc3c(Oc4ccccc4)c(-c4cn(C)c(=O)c5[nH]ccc45)ccc32)C[C@H](C)O1 [Example 72, 4-(2-[(Cyclopropylmethyl)amino]-1-{2-[(2R,6S)-2,6-dimethylmorpholin-4-yl]ethyl}-4-phenoxy-1H-benzimidazol-5-yl)-6-methyl-1,6-dihydro-7H-pyrrolo[2,3-c]pyridin-7-one trifluoroacetate] | 1 to 10 µM
< 0.1 µM | 0.1 to 1 µM | Cn1cc(-c2cc(CNCCN3CCOCC3)c3[nH]c(=O)[nH]c3c2Oc2ccc(F)cc2F)c2cc[nH]c2c1=O [Example 79, 4-(2,4-Difluorophenoxy)-5-(6-methyl-7-oxo-6,7-dihydro-1H-pyrrolo[2,3-c]pyridin-4-yl)-7-{[(2-morpholin-4-ylethyl)amino]methyl}-1,3-dihydro-2H-benzimidazol-2-one] | 1 to 10 µM
< 0.1 µM | 0.1 to 1 µM | CCn1cc(-c2ccc3c(ncn3C)c2Oc2ccc(F)cc2F)c2cc[nH]c2c1=O [Example 83, 4-[4-(2,4-Difluorophenoxy)-1-methyl-1H-benzimidazol-5-yl]-6-ethyl-1,6-dihydro-7H-pyrrolo[2,3-c]pyridin-7-one] | ≤ 1 µM
0.1 to 1 µM | 1 to 10 µM | Cn1cnc2c(Oc3ccc(F)cc3F)c(-c3cn(CC#N)c(=O)c4[nH]ccc34)ccc21 [Example 85, {4-[4-(2,4-Difluorophenoxy)-1-methyl-1H-benzimidazol-5-yl]-7-oxo-1,7-dihydro-6H-pyrrolo[2,3-c]pyridin-6-yl}acetonitrile trifluoroacetate] | 
0.1 to 1 µM | 1 to 10 µM | CCS(=O)(=O)c1c(-c2cn(C)c(=O)c3[nH]ccc23)ccc2c1[nH]c(=O)n2C [Example 99, 4-(Ethylsulfonyl)-1-methyl-5-(6-methyl-7-oxo-6,7-dihydro-1H-pyrrolo[2,3-c]pyridin-4-yl)-1,3-dihydro-2H-benzimidazol-2-one] | 
